According to patent publication US9999622B2, “Pyrazolothiazole compound and medicine comprising same” (NIPPON SHINYAKU CO., LTD., priority 2014, dated 2018):
Counter-ions that a name gives are not always drawn.

Key:
Format in all cases: biochemical
JAK2 = biological target: T1, JAK2 (Homo sapiens, UniProt O60674); experiment: JAK tyrosine kinase inhibitory activity in the presence of 1 mM ATP (ELISA), JAK2
T1 construct: purchased Carna Biosciences, Inc
Outline: (§1)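 Kinase reactions ran on streptavidin-coated plates in 15 mM Tris-HCl pH 7.5, 0.01% Tween-20, 1 mM DTT, 30 °C for 1 h. Enzyme was prediluted to 7.5 nM (JAK1) or 0.75 nM (JAK2, JAK3) before addition. Phosphotyrosine was detected with HRP anti-pTyr antibody and TMB at A450.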

JAK1 = biological target: T2, JAK1 (Homo sapiens, UniProt P23458); experiment: JAK tyrosine kinase inhibitory activity in the presence of 1 mM ATP (ELISA), JAK1
T2 construct: purchased Carna Biosciences, Inc
Outline: as §1

JAK3 = biological target: T3, JAK3 (Homo sapiens, UniProt P52333); experiment: JAK tyrosine kinase inhibitory activity in the presence of 1 mM ATP (ELISA), JAK3
T3 construct: purchased Carna Biosciences, Inc
T3 sequence (P52333 1-1124): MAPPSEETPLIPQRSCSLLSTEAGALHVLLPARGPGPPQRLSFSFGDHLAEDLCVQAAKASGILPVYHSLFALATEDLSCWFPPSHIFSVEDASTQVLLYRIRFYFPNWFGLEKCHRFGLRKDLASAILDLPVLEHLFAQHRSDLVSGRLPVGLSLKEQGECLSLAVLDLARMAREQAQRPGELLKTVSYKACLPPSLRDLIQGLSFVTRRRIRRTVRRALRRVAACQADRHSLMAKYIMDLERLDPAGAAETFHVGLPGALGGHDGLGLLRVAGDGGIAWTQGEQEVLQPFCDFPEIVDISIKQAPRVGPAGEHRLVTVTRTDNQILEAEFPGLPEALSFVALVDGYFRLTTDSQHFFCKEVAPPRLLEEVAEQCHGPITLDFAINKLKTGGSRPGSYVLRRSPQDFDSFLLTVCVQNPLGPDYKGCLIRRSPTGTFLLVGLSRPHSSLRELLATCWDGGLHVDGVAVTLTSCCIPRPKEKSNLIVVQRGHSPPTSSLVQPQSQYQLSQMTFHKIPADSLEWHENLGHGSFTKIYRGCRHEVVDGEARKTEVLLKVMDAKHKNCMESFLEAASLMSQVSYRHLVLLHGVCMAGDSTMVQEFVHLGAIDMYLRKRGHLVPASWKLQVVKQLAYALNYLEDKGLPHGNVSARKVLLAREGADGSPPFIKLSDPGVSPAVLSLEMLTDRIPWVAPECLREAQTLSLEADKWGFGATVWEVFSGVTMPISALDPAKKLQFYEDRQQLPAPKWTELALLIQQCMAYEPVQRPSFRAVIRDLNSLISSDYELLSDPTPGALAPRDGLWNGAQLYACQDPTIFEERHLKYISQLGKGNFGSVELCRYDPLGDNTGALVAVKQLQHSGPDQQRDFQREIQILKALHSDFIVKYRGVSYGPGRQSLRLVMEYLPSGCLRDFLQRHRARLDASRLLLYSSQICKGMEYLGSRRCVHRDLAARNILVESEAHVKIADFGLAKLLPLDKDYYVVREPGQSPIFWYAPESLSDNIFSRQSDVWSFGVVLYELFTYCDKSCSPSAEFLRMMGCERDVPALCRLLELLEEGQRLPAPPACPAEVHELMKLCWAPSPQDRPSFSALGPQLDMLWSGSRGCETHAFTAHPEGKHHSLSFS
Outline: as §1

T2 sequence (P23458 whole entry): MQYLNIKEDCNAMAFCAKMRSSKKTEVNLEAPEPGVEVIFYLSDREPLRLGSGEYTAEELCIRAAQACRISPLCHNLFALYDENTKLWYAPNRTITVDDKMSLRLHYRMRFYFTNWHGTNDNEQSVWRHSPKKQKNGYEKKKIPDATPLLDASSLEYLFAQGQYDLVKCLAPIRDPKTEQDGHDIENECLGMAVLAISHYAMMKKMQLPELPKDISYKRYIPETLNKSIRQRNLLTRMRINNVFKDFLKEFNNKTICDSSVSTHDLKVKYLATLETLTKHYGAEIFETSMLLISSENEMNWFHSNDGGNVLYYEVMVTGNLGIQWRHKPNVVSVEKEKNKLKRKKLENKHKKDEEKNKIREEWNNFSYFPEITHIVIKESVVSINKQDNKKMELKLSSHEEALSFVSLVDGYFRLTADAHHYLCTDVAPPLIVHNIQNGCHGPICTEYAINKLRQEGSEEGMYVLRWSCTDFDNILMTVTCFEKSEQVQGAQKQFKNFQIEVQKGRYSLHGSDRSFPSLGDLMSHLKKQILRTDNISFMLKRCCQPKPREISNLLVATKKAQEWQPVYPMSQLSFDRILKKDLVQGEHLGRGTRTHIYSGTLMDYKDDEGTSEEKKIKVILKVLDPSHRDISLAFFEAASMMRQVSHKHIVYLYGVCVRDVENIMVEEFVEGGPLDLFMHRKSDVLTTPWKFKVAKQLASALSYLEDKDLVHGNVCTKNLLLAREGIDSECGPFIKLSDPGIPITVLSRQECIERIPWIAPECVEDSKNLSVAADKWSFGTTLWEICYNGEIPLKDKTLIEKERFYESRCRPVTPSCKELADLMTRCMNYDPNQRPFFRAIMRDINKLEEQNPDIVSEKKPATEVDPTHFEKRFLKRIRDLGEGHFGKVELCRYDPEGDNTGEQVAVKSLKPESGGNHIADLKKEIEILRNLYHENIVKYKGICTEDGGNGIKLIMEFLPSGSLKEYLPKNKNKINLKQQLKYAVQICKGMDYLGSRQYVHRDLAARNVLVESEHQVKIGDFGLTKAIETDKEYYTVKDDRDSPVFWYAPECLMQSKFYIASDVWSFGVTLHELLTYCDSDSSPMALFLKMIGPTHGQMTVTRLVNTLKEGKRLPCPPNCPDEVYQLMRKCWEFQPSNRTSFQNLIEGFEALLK
T1 sequence (O60674 whole entry): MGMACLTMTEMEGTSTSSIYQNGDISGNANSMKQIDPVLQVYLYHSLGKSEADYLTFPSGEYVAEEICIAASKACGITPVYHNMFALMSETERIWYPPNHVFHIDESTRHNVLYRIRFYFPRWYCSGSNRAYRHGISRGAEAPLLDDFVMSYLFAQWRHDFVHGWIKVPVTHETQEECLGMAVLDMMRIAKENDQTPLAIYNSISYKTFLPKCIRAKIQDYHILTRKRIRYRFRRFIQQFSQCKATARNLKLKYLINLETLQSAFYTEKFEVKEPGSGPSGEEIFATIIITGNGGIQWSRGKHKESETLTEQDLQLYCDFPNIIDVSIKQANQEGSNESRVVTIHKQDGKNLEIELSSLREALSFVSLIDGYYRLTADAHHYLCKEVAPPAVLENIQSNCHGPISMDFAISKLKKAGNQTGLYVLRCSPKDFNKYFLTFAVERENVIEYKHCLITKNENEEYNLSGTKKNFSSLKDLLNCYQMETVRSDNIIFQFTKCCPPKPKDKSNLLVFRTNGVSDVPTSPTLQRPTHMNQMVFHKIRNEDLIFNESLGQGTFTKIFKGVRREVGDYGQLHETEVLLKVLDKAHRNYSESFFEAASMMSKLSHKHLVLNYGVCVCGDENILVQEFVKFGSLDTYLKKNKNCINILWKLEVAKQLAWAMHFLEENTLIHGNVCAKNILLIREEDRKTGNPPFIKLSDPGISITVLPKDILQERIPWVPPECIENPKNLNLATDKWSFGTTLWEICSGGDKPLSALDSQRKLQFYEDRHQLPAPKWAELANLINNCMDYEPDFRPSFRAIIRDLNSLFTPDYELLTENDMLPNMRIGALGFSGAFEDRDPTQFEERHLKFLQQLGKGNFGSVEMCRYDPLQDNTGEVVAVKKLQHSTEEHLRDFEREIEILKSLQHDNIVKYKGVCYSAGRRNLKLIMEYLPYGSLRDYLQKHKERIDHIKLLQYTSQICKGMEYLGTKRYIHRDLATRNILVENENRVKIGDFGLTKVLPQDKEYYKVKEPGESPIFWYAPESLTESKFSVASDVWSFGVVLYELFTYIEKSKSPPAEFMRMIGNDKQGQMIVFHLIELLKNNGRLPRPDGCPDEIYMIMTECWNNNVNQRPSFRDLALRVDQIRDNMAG

| Structure (SMILES) | IC50 (JAK2) [nM] | IC50 (JAK1) [nM] | IC50 (JAK3) [nM] |
| --- | --- | --- | --- |
| Cc1c(N[C@@H](C)C(C)(C)C)nc(-c2cnn3ccsc23)nc1C(=O)N1CCC(NC(=O)C2CC2)CC1 [Example 7, N-(1-{[6-{[(2S)-3,3-Dimethylbutan-2-yl]amino}-5-methyl-2-(pyrazolo[5,1-b][1,3]thiazol-7-yl)pyrimidin-4-yl]carbonyl}piperidin-4-yl)cyclopropanecarboxamide] | > 10000 | 69 | 2700 |
| C[C@@H](C1CC1)N(C)c1cc(C(=O)N2CCC(Nc3ncccn3)CC2)nc(-c2cnn3ccsc23)n1 [Example 35, [6-{[(1S)-1-Cyclopropylethyl](methyl)amino}-2-(pyrazolo[5,1-b][1,3]thiazol-7-yl)pyrimidin-4-yl][4-(pyrimidin-2-ylamino)piperidin-1-yl]methanone] | 2400 | 270 | > 10000 |
| CCN(c1cc(C(=O)N2CCC(O)CC2)nc(-c2cnn3ccsc23)n1)C(C)(C)C [Example 133, {6-[tert-Butyl(ethyl)amino]-2-(pyrazolo[5,1-b][1,3]thiazol-7-yl)pyrimidin-4-yl}(4-hydroxypiperidin-1-yl)methanone] | > 10000 | 2900 | > 10000 |
| COC(=O)NC1CCN(C(=O)c2cc(N[C@@H]3CCN(C(C)=O)C3)nc(-c3cnn4ccsc34)n2)CC1 [Example 152, Methyl (1-{[6-{[(3R)-1-acetylpyrrolidin-3-yl]amino}-2-(pyrazolo[5,1-b][1,3]thiazol-7-yl)pyrimidin-4-yl]carbonyl}piperidin-4-yl)carbamate] | > 10000 | 2300 | > 10000 |
| C[C@H](Nc1cc(C(=O)N2CCC(NS(C)(=O)=O)CC2)nc(-c2cnn3ccsc23)n1)C1CC1 [Example 66, N-(1-{[6-{[(1S)-1-Cyclopropylethyl]amino}-2-(pyrazolo[5,1-b][1,3]thiazol-7-yl)pyrimidin-4-yl]carbonyl}piperidin-4-yl)methanesulfonamide] | 620 | 110 | 2400 |
| CS(=O)(=O)N1CCC(Nc2cc(C(=O)N3CCC(NC(=O)C4CC4)CC3)nc(-c3cnn4ccsc34)n2)CC1 [Example 189, N-1-[6-[1-(methanesulfonyl)piperidin-4-yl]amino-2-(pyrazolo[5,1-b][1,3]thiazol-7-yl)pyrimidine-4-carbonyl]piperidin-4-ylcyclopropanecarboxamide] | > 10000 | 1100 | > 10000 |
| CC(C)(C)[C@@H](CO)Nc1cc(C(=O)N2CCC(NC(=O)C3CC3)CC2)nc(-c2cnn3ccsc23)n1 [Example 55, N-(1-{[6-{[(2S)-1-Hydroxy-3,3-dimethylbutan-2-yl]amino}-2-(pyrazolo[5,1-b][1,3]thiazol-7-yl)pyrimidin-4-yl]carbonyl}piperidin-4-yl)cyclopropanecarboxamide] | > 10000 | 140 | > 10000 |
| CC(Oc1cc(C(=O)N2CCC(NC(=O)C3CC3)CC2)nc(-c2cnn3ccsc23)n1)C(C)(C)C (stereo not drawn) [Example 44, N-[1-({6-[(3,3-Dimethylbutan 2 yl)oxy]-2-(pyrazolo[5,1-b][1,3]thiazol-7-yl)pyrimidin-4-yl}carbonyl)piperidin-4-yl]cyclopropanecarboxamide] | 1300 | 66 | > 10000 |
| C[C@H](Nc1cc(C(=O)N2CCC(NC(=O)c3ccccn3)CC2)nc(-c2cnn3ccsc23)n1)C1CC1 [Example 185, N-1-[6-[(1S)-1-cyclopropylethyl]amino-2-(pyrazolo[5,1-b][1,3]thiazol 7 yl)pyrimidine-4-carbonyl]piperidin-4-ylpyridine-2-carboxamide] | > 10000 | 190 | 810 |
| CCC(CC)N(C)c1cc(C(=O)N2CCC(O)CC2)nc(-c2cnn3ccsc23)n1 [Example 120, (4-Hydroxypiperidin-1-yl){6-[methyl(pentan-3-yl)amino]-2-(pyrazolo[5,1-b][1,3]thiazol-7-yl)pyrimidin-4-yl}methanone hydrochloride] | 3000 | 870 | 3400 |
| CC(Nc1cc(C(=O)N2CCC(NC(=O)C3CC3)CC2)nc(-c2cnn3ccsc23)n1)c1ccncc1 (stereo not drawn) [Example 170, N-1-[2-(pyrazolo[5,1-b][1,3]thiazol 7 yl) 6 [1-(pyridin-4-yl)ethyl]aminopyrimidine-4-carbonyl]piperidin-4-ylcyclopropanecarboxamide] | > 10000 | 1600 | > 10000 |

Further lines, results first:

| IC50 (JAK2) [nM] | IC50 (JAK1) [nM] | IC50 (JAK3) [nM] | Structure (SMILES) |
| --- | --- | --- | --- |
| > 10000 | 2600 | > 10000 | COC(=O)NC1CCN(C(=O)c2cc(N[C@H]3CCN(C(=O)OC(C)(C)C)C3)nc(-c3cnn4ccsc34)n2)CC1 [Example 147, tert-Butyl (3S)-3-{[6 {(4 [(methoxycarbonyl)amino]piperidin-1-yl}carbonyl)-2-(pyrazolo[5,1-b][1,3]thiazol-7-yl)pyrimidin-4-yl]amino}pyrrolidine-1-carboxylate] |
| > 10000 | 2700 | > 10000 | N#CCC(=O)N1CC[C@H](Nc2cc(C(=O)N3CCC(NC(=O)C4CC4)CC3)nc(-c3cnn4ccsc34)n2)C1 [Example 204, N-1-[6-[(3S)-1-(cyanoacetyl)pyrrolidin-3-yl]amino-2-(pyrazolo[5,1-b][1,3]thiazol-7-yl)pyrimidine-4-carbonyl]piperidin-4-ylcyclopropanecarboxamide] |
| > 10000 | 52 | > 10000 | N#CCC(=O)N1CC[C@@H](Nc2cc(C(=O)N3CCC(NC(=O)C4CC4)CC3)nc(-c3cnn4ccsc34)n2)C1 [Example 191, N-1-[6-[(3R)-1-(cyanoacetyl)pyrrolidin-3-yl]amino-2-(pyrazolo[5,1-b][1,3]thiazol-7-yl)pyrimidine-4-carbonyl]piperidin-4-ylcyclopropanecarboxamide] |
| 2400 | 52 | 3800 | O=C(NC1CCN(C(=O)c2cc(NCC3(COC(F)F)CC3)nc(-c3cnn4ccsc34)n2)CC1)C1CC1 [Example 8, N-[1-({6-[({1-[(Difluoromethoxy)methyl]cyclopropyl}methyl)amino]-2-(pyrazolo[5,1-b][1,3]thiazol-7-yl)pyrimidin-4-yl}carbonyl)piperidin-4-yl]cyclopropanecarboxamide] |
| > 10000 | 2600 | > 10000 | O=C(NC1CCN(C(=O)c2cc(NCc3cccs3)nc(-c3cnn4ccsc34)n2)CC1)C1CC1 [Example 159, N-1-[2-(pyrazolo[5,1-b][1,3]thiazol-7-yl)-6-[(thiophen-2-yl)methyl]aminopyrimidine-4-carbonyl]piperidin-4-ylcyclopropanecarboxamide] |
| 770 | 280 | 340 | COC(=O)NC1CCN(C(=O)c2cc(NC(C3CC3)C3CC3)nc(-c3cnn4ccsc34)n2)CC1 [Example 140, Methyl [1-({6-[(dicyclopropylmethyl)amino]-2-(pyrazolo[5,1-b][1,3]thiazol-7-yl)pyrimidin-4-yl}carbonyl)piperidin-4-yl]carbamate] |
| 1900 | 210 | 3800 | CCC(=O)NC1CCN(C(=O)c2cc(N(C)C(CC)CC)nc(-c3cnn4ccsc34)n2)CC1 [Example 116, N-[1-({6-[Methyl(pentan-3-yl)amino]-2-(pyrazolo[5,1-b][1,3]thiazol-7-yl)pyrimidin-4-yl}carbonyl)piperidin-4-yl]propanamide] |
| 790 | 73 | 2100 | CCS(=O)(=O)NC1CCN(C(=O)c2cc(N[C@@H](C)C3CC3)nc(-c3cnn4ccsc34)n2)CC1 [Example 68, N-(1-{[6-{[(1S)-1-Cyclopropylethyl]amino}-2-(pyrazolo[5,1-b][1,3]thiazol-7-yl)pyrimidin-4-yl]carbonyl}piperidin-4-yl)ethanesulfonamide] |
| 3500 | 350 | 2900 | CCC(CC)N(C)c1cc(C(=O)N2CCC(NC(=O)OC)CC2)nc(-c2cnn3ccsc23)n1 [Example 112, Methyl [1-({6-[methyl(pentan-3-yl)amino]-2-(pyrazolo[5,1-b][1,3]thiazol-7-yl)pyrimidin-4-yl}carbonyl)piperidin-4-yl]carbamate] |
